Reference: patent publication US20210345609A1, “AMINOCARBOXYLIC ACID CHELATING AGENT WITH ANTIFUNGAL ACTIVITY AND SYNERGISTIC USE THEREOF WITH OTHER STERILANTS” (priority 2020, published 2021)
Values after ≈ are worked out from the molar mass of the structure shown. Read-outs that look alike come from different tables or passages of the source.

Key:
[1] = tested on: F. oxysporum; assay: Spore germination method, indoor toxicity on Fusarium; type: cell-based
[2] = tested on: Botrytis cinerea; assay: Spore germination method on Botrytis cinerea; type: cell-based
[3] = tested on: F. verticilloides; assay: Spore germination method, indoor toxicity on Fusarium; type: cell-based
[4] = tested on: Fusarium Fg2021; assay: Indoor in vivo efficacy on Fusarium, wheat coleoptiles; design: species or system Fusarium Fg2021 on wheat (Yumai 35) seedlings; settings: Fg2021, 7 d, vs control
Procedure: Seeds of Yumai 35 were sterilized with 0.1% mercury dichloride for 5 min, rinsed with sterile water for 3 times and immersed for 2 h. The seeds were evenly placed in plastic boxes laid with double layers of sterile filter paper with 30 seeds a box. Cultivation was carried out at 25° C. with 90% humidity and a cycle of 12 h light and 12 h dark in a light incubator for 2 d. […] 12 h later, tips of the coleoptiles were cut. Cut wounds were inoculated with 5 μL of 5×10^5 cells/mL Fg2021 spore solution respectively. Cultivation was carried out in the light incubator. 7 d later, length of disease spot was investigated.

[5] = tested on: Trichoderma; assay: Hyphae growth rate method (PDA plate method); type: cell-based
[6] = tested on: F. graminearum; assay: microbe, parasite or virus in culture; type: cell-based
[7] = tested on: wheat scab (Fg2021); type: in vivo; settings: wheat at flowering, vs control group
[8] = tested on: Pyricularia oryzae; assay: microbe, parasite or virus in culture; type: cell-based
[9] = tested on: F. asiaticum; assay: Spore germination method, indoor toxicity on Fusarium; type: cell-based
Procedure: Experimental methods and specific experimental steps for indoor toxicology determination of Fusarium were as follows:
Step (1): Collection of spores. Five plates (5 mm) evenly distributed on the edge of a medium for Fusarium cultured at 25° C. for 3 d were taken and placed in the CMC medium. After culture under shaking at 175 rpm and 25° C. for 5 d, a filtrate was collected with three layers of sterile lens-cleaning paper. Centrifuging was carried out at 10,000 rpm for 10 min. Washing was carried out twice with sterile water (10,000 rpm, 10 min/time). A spore concentration was adjusted to 1×10^4 ml^1.
Step (2): Setting of concentration gradients of drugs. […] Drugs and spore solutions were mixed, drawn to a cell culture plate and incubated in a thermostat incubator at 25° C. for a period of time.
Step (3): Investigation results and statistical analysis. When a spore germination rate of control group was >90%, spore germination was observed and analyzed statistically.
Spore germination rate (%)=number of germinated spores/number of inspected spores×100
Corrected germination rate (%)=(germination rate for control−germination rate for treatment)/([…])×100

[10] = tested on: F. solani; assay: as above; type: cell-based
[11] = tested on: Penicillium; assay: Hyphae growth rate method (PDA plate method); type: cell-based
[12] = tested on: pathogenic Phytophthora; assay: Hyphae growth rate method (PDA plate method); type: cell-based
Source text: Step 1): Setting of concentration gradients of drugs.
Step 2): Determination of EC50 values of drugs against pathogenic Phytophthora with a hyphae growth rate method (PDA plate method)

[13] = tested on: Botrytis cinerea; assay: Indoor in vivo efficacy on Botrytis cinerea, cucumber leaves; settings: 4 d, vs control
[14] = tested on: Pyricularia oryzae Guy11; type: in vivo, Pyricularia oryzae Guy 11 on barley leaves; settings: Guy11, 6 d
[15] = 7.5 mM sprayed on wheat coleoptiles
[16] = 15 μM sprayed on wheat coleoptiles

SMILES: O=C(O)CN(CCN(CC(=O)O)CC(=O)O)CC(=O)O [EDTA, ethylenediaminetetraacetic acid]
- EC50 ([1]; Fusarium oxysporum): 17.7 µg/mL (≈ 60.5 µM)
- EC50 [2]: 1.63 µg/mL (≈ 5.58 µM)
- EC50 [3]: 19 µg/mL (≈ 65.1 µM)
- length of disease spot [4, 15]: significantly shorter disease spots
- EC50 [5]: 6.12 µg/mL (≈ 20.9 µM)
- EC50 ([6]; Fusarium graminearum): 17.8 µg/mL (≈ 60.8 µM)
- disease of wheat ears (diseased spikelets) ([7]; 7 g ha^−1, field): significantly lighter disease
- EC50 [8]: 9.75 µg/mL (≈ 33.4 µM)
- EC50 ([9]; read-out: EC50): 8.76 µg/mL (≈ 30 µM)
- EC50 ([10]; Fusarium solani): 17.5 µg/mL (≈ 59.9 µM)
- EC50 [11]: 3.15 µg/mL (≈ 10.8 µM)
- EC50 ([12]; read-out: EC50): 18.2 µg/mL (≈ 62.4 µM)
- disease spots ([13]; 25 mM sprayed on cucumber leaves): significantly shorter disease spots

SMILES: O=C([O-])CN(CCN(CC(=O)[O-])CC(=O)[O-])CC(=O)[O-].[Na+].[Na+].[Na+].[Na+] [EDTANa4]
- length of disease spot [4, 15]: significantly shorter disease spots
- EC50 [8]: 9.01 µg/mL

SMILES: O=C([O-])CN(CCN(CC(=O)[O-])CC(=O)[O-])CCN(CC(=O)[O-])CC(=O)[O-].[Na+].[Na+].[Na+].[Na+].[Na+] [DTPANa5]
- length of disease spot [4, 16]: significantly shorter disease spots
- EC50 [8]: 9.32 µg/mL

SMILES: O=C(O)CN(CCN(CC(=O)O)CC(=O)O)CCN(CC(=O)O)CC(=O)O [DTPA, diethylenetriaminepentaacetic acid]
- EC50 ([1]; F. oxysporum, spore germination): 17.77 µg/mL (≈ 45.2 µM)
- EC50 ([2]; spore germination): 1.85 µg/mL (≈ 4.7 µM)
- EC50 ([3]; F. verticilloides, spore germination): 18.82 µg/mL (≈ 47.8 µM)
- length of disease spot [4, 16]: significantly shorter disease spots
- EC50 ([5]; hyphae growth rate): 7.6421 µg/mL (≈ 19.4 µM)
- EC50 ([6]; F. graminearum, spore germination): 16.22 µg/mL (≈ 41.2 µM)
- disease of wheat ears (diseased spikelets) ([7]; 7 g ha^−1, field): significantly lighter disease
- EC50 [8]: 9.45 µg/mL (≈ 24 µM)
- EC50 [9]: 8.76 µg/mL (≈ 22.3 µM)
- EC50 ([10]; F. solani, spore germination): 17.80 µg/mL (≈ 45.3 µM)
- EC50 ([11]; hyphae growth rate): 4.3704 µg/mL (≈ 11.1 µM)
- EC50 [12]: 20.35 µg/mL (≈ 51.7 µM)
- disease spots ([13]; 10 mM sprayed on cucumber leaves): significantly shorter disease spots

SMILES: O=C([O-])CN(CCN(CC(=O)[O-])CC(=O)O)CC(=O)[O-].[Na+].[Na+].[Na+] [EDTANa3]
- EC50 [12]: 17.56 µg/mL

SMILES: O=C([O-])CN(CCN(CC(=O)[O-])CC(=O)O)CC(=O)O.[Na+].[Na+] [EDTANa2]
- EC50 ([2]; spore germination): 1.12 µg/mL
- disease spots ([14]; 30 mM sprayed on barley leaves): significantly reduced disease spots
- EC50 [12]: 19.39 µg/mL

SMILES: COC(=O)Nc1nc2ccccc2[nH]1 [carbendazim, reference compound]
- disease of wheat ears (diseased spikelets) ([7]; 140 g ha^−1, field): significantly lighter disease

SMILES: O=C([O-])CN(CCN(CC(=O)[O-])CC(=O)[O-])CCN(CC(=O)[O-])CC(=O)[O-].[H+].[H+].[Na+].[Na+].[Na+] [DTPANa3]
- EC50 ([2]; spore germination): 1.88 µg/mL
- disease spots ([14]; 10 mM sprayed on barley leaves): significantly reduced disease spots

SMILES: O=C([O-])CN(CCN(CC(=O)[O-])CC(=O)[O-])CC(=O)[O-].[Mg+2].[Mg+2] [EDTAMg2]
- disease spots ([13]; 30 mM sprayed on cucumber leaves): significantly shorter disease spots
